Converted amounts (≈) assume the structure as drawn. Like-named read-outs stand apart in the source and are kept apart here.
Key:
Bifidobacterium bifidum = test: In vitro MIC testing against anaerobic bacteria; format: cell-based; details: ATCC15696; Bifidobacterium bifidum 3965, ATCC 15696
[1] = test system: Streptococcus intermedius; test: In vitro MIC testing against anaerobic bacteria; format: cell-based; details: ATCC27335; Streptococcus intermedius 1203, ATCC 27335
Bacteroides ovatus = test: In vitro MIC testing against anaerobic bacteria; format: cell-based; details: Bacteroides ovatus 3508, read-out: MIC
Clostridium perfringens = test: microbe, parasite or virus in culture; format: cell-based
Prevotella spp. = test: In vitro MIC testing against anaerobic bacteria; format: cell-based
P. aeruginosa = test: In vitro MIC testing, antibacterial spectrum of activity; format: cell-based; details: Pseudomonas aeruginosa; P. aeruginosa (11 isolates)
[2] = test system: Prevotella melaninogenica; test: In vitro MIC testing against anaerobic bacteria; format: cell-based; details: Prevotella melaninogenica 3443, read-out: MIC
Bifidobacterium infantis = test: In vitro MIC testing against anaerobic bacteria; format: cell-based; details: ATCC15702; Bifidobacterium infantis 3966, ATCC 15702
P. granulosum = test: In vitro MIC testing, antibacterial spectrum of activity; format: cell-based; details: P. granulosum [clinical isolates] (3 isolates)
S. agalactiae = test: as above; format: cell-based; details: Streptococcus agalactiae
[3] = test system: Lactobacillus acidophilus; test: In vitro MIC testing against anaerobic bacteria; format: cell-based; details: Lactobacillus acidophilus 0681
Salmonella Spp. = test: In vitro MIC testing, antibacterial spectrum of activity; format: cell-based; details: Salmonella
Bifidobacterium longum = test: In vitro MIC testing against anaerobic bacteria; format: cell-based; details: ATCC15707; Bifidobacterium longum 3968, ATCC 15707
Lactobacillus plantarum = test: In vitro MIC testing against anaerobic bacteria; format: cell-based; details: Lactiplantibacillus plantarum, ATCC39268; Lactobacillus plantarum 2791, ATCC 39268
Lactobacillus casei = test: In vitro MIC testing against anaerobic bacteria; format: cell-based; details: Lacticaseibacillus casei, ATCC393; Lactobacillus casei 1722, ATCC 393
Bifidobacterium brevi = test: In vitro MIC testing against anaerobic bacteria; format: cell-based; details: ATCC15698; Bifidobacterium brevi 3967, ATCC 15698
Veillonella parvula = test: In vitro MIC testing against anaerobic bacteria; format: cell-based; details: ATCC17745; Veillonella parvula 1272, ATCC 17745
P. avidum = test: In vitro MIC testing, antibacterial spectrum of activity; format: cell-based; details: P. avidum [clinical isolates] (4 isolates)
S. haemolyticus = test: as above; format: cell-based; details: Staphylococcus haemolyticus; S. haemolyticus (33 isolates); read-out: MIC90
P. acnes = test: as above; format: cell-based, Propionibacterium acnes; details: Cutibacterium acnes
E. faecium = test: as above; format: cell-based; details: Enterococcus faecium
K. pneumoniae = test: as above; format: cell-based
E. coli = test: as above; format: cell-based; details: Escherichia coli; E. coli (33 isolates); read-out: MIC90
E. cloacae = test: as above; format: cell-based; details: Enterobacter cloacae; E. cloacae (30 isolates)
Helicobacter pylori [4] = test: In vitro MIC against multiple isolates of H. pylori; format: cell-based; details: for MIC: read-out: MIC
Helicobacter pylori [5] = details: H. pylori reference strain 3718, ATCC 43504; Clinical and Laboratory Standards Institute quality control range; cited from earlier work
[6] = P. acnes [clinical isolates] (55 isolates)
[7] = Klebsiella pneumoniae, K. pneumoniae (31 isolates)

## CN(C)[C@@H]1C(O)=C(C(N)=O)C(=O)[C@@]2(O)C(O)=C3C(=O)c4c(O)cccc4[C@@](C)(O)[C@H]3C[C@@H]12 [Tetracycline, tetracycline]
Bifidobacterium bifidum
  MIC: 1 mg/L (≈ 2.25 µM)
[1]
  MIC: 2 mg/L (≈ 4.5 µM)
Bacteroides ovatus
  MIC: 0.5 mg/L (≈ 1.13 µM)
Clostridium perfringens
  MIC: > 16 mg/L
Clostridium perfringens; Clostridium perfringens 3518
  MIC: > 16 mg/L
Prevotella spp.; Prevotella spp. 3564
  MIC: 1 mg/L (≈ 2.25 µM)
Prevotella spp.; Prevotella spp. 3568
  MIC: 4 mg/L (≈ 9 µM)
P. aeruginosa
  MIC50: 64 mg/L (≈ 144 µM)
[2]
  MIC: 8 mg/L (≈ 18 µM)
Bifidobacterium infantis
  MIC: 1 mg/L (≈ 2.25 µM)
P. granulosum
  MIC Range: 1 to 2 mg/L
S. agalactiae
  MIC90: > 32 mg/L
[3]
  MIC: 2 mg/L (≈ 4.5 µM)
Salmonella Spp.
  MIC50: 2 mg/L (≈ 4.5 µM)
  MIC90: > 64 mg/L
Bifidobacterium longum
  MIC: 2 mg/L (≈ 4.5 µM)
Lactobacillus plantarum
  MIC: 2 mg/L (≈ 4.5 µM)
Lactobacillus casei
  MIC: 2 mg/L (≈ 4.5 µM)
Bifidobacterium brevi
  MIC: 1 mg/L (≈ 2.25 µM)
Veillonella parvula
  MIC: 1 mg/L (≈ 2.25 µM)
P. avidum
  MIC Range: 1 to 8 mg/L
S. haemolyticus
  MIC90: > 32 mg/L
P. acnes
  MIC50: 0.5 mg/L (≈ 1.13 µM)
  MIC90: 4 mg/L (≈ 9 µM)
P. acnes; [6]
  MIC50: 1 mg/L (≈ 2.25 µM)
  MIC90: 2 mg/L (≈ 4.5 µM)
E. faecium
  MIC50: 1 mg/L (≈ 2.25 µM)
  MIC90: > 64 mg/L
E. faecium; VRE
  MIC50: 2 mg/L (≈ 4.5 µM)
  MIC90: > 64 mg/L
K. pneumoniae; K. pneumoniae [tetS] (7 isolates)
  MIC Range: 0.5 to 4 mg/L
K. pneumoniae; [7]
  MIC50: 8 mg/L (≈ 18 µM)
  MIC90: > 64 mg/L
E. coli
  MIC90: > 64 mg/L
E. cloacae
  MIC90: > 64 mg/L

## Cc1ncc([N+](=O)[O-])n1CCO [Metronidazole, metronidazole]
Helicobacter pylori [4]; H. pylori clinical isolate summary
  MIC Range: ≦0.03-64 μg/mL
Helicobacter pylori [4]; Helicobacter pylori, ATCC43504, H. pylori reference strain, culture No. 3718, ATCC 43504
  MIC: 64 mg/L (≈ 374 µM)
Helicobacter pylori [4]; Helicobacter pylori, ATCC700824, H. pylori reference strain, culture No. 3719, ATCC 700824
  MIC: 1 mg/L (≈ 5.84 µM)
Helicobacter pylori [4]; Helicobacter pylori, ATCCBAA945, H. pylori reference strain, culture No. 3720, ATCC BAA-945
  MIC: 1 mg/L (≈ 5.84 µM)
Helicobacter pylori [4]; Helicobacter pylori, H. pylori clinical isolate, culture No. 4368
  MIC: 0.25 mg/L (≈ 1.46 µM)
Helicobacter pylori [4]; Helicobacter pylori, H. pylori clinical isolate, culture No. 4369
  MIC: 0.5 mg/L (≈ 2.92 µM)
Helicobacter pylori [4]; Helicobacter pylori, H. pylori clinical isolate, culture No. 4370
  MIC: 0.12 mg/L (≈ 0.701 µM)
Helicobacter pylori [4]; Helicobacter pylori, H. pylori clinical isolate, culture No. 4371
  MIC: 1 mg/L (≈ 5.84 µM)
Helicobacter pylori [4]; Helicobacter pylori, H. pylori clinical isolate, culture No. 4372
  MIC: 0.25 mg/L (≈ 1.46 µM)
Helicobacter pylori [4]; Helicobacter pylori, H. pylori clinical isolate, culture No. 4374
  MIC: 0.12 mg/L (≈ 0.701 µM)
Helicobacter pylori [4]; Helicobacter pylori, H. pylori clinical isolate, culture No. 4375
  MIC: 0.12 mg/L (≈ 0.701 µM)
Helicobacter pylori [4]; Helicobacter pylori, H. pylori clinical isolate, culture No. 4377
  MIC: 1 mg/L (≈ 5.84 µM)
Helicobacter pylori [4]; Helicobacter pylori, H. pylori clinical isolate, culture No. 4503
  MIC: ≤ 0.03 mg/L
Helicobacter pylori [4]; Helicobacter pylori, H. pylori clinical isolate, culture No. 4504
  MIC: ≤ 0.03 mg/L
Helicobacter pylori [4]; Helicobacter pylori, H. pylori, MIC for 90% of clinical test isolates, read-out: MIC90
  MIC90: 1 mg/L (≈ 5.84 µM)
Helicobacter pylori [4]; Helicobacter pylori, read-out: MIC50
  MIC50: 0.12 mg/L (≈ 0.701 µM)
Helicobacter pylori [5]
  MIC, CLSI Quality Control Range: 64 to 256 mg/L

— patent publication US20130302442A1, “METHODS OF USING (4S,4AS,5AR,12AS)-4-DIMETHYLAMINO-3,10,12,12A-TETRAHYDROXY-7-[(METHOXY(METHYL)AMINO)-METHYL]-1,11-DIOXO-1,4,4A,5,5A,6,11,12A-OCTAHYDRO-NAPHTHACENE-2-CARBOXYLIC ACID AMIDE” (priority 2012, published 2013)
